Here are results for 1 compound from BindingDB's records for doi:10.1021/jm990537r (Cocensys, 2000).

A word on the IC50: it is the point on the concentration scale where inhibition reaches its midpoint. A high value points to weaker potency.

The structures appear in SMILES notation.

For this test, the target named is Glutamate receptor ionotropic NMDA 2B (Rattus norvegicus) (UniProt Q00960). Put plainly: In vitro inhibition of NMDA responses at NR1A/2B receptor expressed in Xenopus oocytes.
Chain of Glutamate receptor ionotropic NMDA 2B (Rattus norvegicus) (Q00960 whole entry, looked up): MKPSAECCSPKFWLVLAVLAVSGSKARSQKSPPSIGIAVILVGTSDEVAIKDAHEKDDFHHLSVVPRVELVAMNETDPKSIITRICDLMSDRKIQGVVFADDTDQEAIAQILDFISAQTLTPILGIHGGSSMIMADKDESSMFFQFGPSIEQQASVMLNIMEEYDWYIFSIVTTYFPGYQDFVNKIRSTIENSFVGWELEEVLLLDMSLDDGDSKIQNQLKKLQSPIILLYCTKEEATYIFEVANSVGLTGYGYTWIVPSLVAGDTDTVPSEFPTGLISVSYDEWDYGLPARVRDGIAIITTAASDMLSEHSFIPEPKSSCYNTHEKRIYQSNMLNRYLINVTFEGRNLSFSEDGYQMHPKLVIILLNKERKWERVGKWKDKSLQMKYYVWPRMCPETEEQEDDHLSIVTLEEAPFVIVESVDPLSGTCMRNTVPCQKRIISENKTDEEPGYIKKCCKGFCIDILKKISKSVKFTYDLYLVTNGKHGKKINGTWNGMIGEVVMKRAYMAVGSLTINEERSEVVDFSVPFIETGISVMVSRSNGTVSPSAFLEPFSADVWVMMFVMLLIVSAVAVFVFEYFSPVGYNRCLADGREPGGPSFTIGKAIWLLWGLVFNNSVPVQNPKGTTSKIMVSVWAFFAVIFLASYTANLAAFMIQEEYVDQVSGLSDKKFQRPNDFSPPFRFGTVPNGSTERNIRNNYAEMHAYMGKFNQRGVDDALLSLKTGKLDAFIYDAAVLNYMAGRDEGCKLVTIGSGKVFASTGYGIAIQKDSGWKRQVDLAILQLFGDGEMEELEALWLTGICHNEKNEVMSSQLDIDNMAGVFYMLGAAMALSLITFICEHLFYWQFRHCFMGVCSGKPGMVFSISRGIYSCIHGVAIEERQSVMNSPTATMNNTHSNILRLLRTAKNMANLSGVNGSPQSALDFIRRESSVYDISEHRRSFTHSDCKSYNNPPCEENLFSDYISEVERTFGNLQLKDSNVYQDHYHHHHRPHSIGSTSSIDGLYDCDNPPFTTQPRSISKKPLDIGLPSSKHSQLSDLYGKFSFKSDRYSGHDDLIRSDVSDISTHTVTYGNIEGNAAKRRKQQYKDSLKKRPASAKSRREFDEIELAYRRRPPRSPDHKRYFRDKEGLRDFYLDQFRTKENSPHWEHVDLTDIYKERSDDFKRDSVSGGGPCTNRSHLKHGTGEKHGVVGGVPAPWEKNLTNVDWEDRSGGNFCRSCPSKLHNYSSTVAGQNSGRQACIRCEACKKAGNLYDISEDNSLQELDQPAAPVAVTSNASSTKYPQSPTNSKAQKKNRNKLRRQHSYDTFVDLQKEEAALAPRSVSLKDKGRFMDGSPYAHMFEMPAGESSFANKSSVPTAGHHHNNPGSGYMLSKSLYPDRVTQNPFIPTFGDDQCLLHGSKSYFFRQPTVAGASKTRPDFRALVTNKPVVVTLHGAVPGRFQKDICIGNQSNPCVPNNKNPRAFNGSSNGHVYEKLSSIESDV

In turn, `Oc1ccc(OCCN2CCC(Cc3ccccc3)CC2)cc1` [4-[2-(4-Benzyl-piperidin-1-yl)-ethoxy]-phenol] gave an IC50 of 25 nM. In other words, the double-digit nanomolar range.
